Here are results for eight compounds from paper PMC6073568, “Efficient Lead Finding, Activity Enhancement and Preliminary Selectivity Control of Nuclear Receptor Ligands Bearing a Phenanthridinone Skeleton” (International Journal of Molecular Sciences, 2018).

Experiment [1] addresses T1, RORγ (Homo sapiens, UniProt P51449).
T1 construct: expressed in transfected cells; host or cells: HEK293
T1 sequence (P51449 1-518): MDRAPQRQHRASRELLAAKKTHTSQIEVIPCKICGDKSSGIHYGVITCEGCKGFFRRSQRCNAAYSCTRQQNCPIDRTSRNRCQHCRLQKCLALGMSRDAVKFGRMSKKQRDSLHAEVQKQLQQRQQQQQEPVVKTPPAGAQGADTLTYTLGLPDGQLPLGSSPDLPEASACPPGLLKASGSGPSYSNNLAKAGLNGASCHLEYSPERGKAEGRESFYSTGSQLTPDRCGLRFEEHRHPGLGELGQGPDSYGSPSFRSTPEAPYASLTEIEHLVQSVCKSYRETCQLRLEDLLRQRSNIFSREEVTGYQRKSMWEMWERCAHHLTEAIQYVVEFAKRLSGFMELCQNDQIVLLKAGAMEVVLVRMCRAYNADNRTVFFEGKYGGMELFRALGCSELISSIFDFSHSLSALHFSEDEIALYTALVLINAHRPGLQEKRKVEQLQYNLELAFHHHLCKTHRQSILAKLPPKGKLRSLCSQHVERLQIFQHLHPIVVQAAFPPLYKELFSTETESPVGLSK
The following applies: reporter gene assay, HEK293; read-out: RORγ inverse agonistic activity (IC50); cited from earlier work. A general note: A reporter such as luciferase makes a cellular process visible.

For experiment [2], the target named is T2, AR (Homo sapiens, UniProt P10275).
T2 sequence (P10275 1-920): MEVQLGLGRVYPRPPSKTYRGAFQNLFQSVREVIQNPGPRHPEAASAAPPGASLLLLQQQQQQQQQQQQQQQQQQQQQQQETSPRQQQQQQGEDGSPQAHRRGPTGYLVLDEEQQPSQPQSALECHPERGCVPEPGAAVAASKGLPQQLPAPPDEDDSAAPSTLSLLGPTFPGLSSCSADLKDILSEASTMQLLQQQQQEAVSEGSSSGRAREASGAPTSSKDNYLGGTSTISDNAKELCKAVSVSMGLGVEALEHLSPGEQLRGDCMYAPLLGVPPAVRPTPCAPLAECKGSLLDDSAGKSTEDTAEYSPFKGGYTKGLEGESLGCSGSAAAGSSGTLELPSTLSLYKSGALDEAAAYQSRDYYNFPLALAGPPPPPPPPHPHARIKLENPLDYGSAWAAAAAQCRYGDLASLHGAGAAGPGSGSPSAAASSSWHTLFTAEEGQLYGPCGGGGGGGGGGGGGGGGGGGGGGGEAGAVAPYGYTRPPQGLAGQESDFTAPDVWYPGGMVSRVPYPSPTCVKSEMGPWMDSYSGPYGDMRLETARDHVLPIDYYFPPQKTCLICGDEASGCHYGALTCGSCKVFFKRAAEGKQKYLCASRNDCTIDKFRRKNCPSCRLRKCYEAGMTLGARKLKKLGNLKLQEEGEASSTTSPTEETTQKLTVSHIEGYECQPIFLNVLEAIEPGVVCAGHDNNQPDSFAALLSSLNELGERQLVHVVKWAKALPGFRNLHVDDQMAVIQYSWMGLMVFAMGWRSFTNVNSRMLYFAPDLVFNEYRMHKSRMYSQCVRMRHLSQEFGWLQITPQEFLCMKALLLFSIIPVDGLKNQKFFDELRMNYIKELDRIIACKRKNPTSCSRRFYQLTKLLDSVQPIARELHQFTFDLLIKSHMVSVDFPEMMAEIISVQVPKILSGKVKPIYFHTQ
Briefly: AR reporter gene assay in HEK293. Format: cell-based. The following applies: reporter gene assay, HEK293; agonist dihydrotestosterone 0.3 nM; read-out: AR antagonistic activity (IC50), AR reporter gene.

For experiment [3], the target named is T3, RORβ (Homo sapiens, UniProt Q92753).
T3 construct: expressed in transfected cells; host or cells: HEK293
T3 sequence (Q92753 1-459 isoform Q92753-1): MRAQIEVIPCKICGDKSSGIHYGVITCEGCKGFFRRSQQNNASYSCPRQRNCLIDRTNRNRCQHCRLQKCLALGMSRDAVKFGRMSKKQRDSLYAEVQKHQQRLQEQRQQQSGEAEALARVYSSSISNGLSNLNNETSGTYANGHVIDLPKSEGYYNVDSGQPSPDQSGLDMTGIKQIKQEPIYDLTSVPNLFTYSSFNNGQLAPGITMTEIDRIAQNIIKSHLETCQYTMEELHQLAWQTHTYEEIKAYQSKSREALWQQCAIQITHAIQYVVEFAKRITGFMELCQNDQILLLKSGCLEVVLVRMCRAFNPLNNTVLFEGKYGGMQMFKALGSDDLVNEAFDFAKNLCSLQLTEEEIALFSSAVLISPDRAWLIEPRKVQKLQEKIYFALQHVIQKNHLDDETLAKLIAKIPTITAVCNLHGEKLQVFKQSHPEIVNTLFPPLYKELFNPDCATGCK
To be noted: reporter gene assay, HEK293; read-out: RORβ inverse agonistic activity (IC50); cited from earlier work.

Experiment [4] has as its target T4, RORα (Homo sapiens, UniProt P35398).
T4 construct: expressed in transfected cells; host or cells: HEK293
T4 sequence (P35398 1-523): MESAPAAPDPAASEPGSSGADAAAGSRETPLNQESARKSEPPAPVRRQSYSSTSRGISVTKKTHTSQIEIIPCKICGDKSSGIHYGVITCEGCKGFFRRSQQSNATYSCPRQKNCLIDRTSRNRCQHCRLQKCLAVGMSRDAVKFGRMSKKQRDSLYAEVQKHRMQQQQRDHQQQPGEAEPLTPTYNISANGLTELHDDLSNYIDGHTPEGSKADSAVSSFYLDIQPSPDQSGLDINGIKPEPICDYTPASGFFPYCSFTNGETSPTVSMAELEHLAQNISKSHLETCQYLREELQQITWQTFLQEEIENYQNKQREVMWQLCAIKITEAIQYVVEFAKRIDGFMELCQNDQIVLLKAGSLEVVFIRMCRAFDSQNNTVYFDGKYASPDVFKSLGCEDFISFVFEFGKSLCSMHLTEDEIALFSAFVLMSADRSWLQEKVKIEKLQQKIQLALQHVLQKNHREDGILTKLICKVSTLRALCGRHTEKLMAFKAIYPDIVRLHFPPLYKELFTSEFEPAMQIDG
To be noted: reporter gene assay, HEK293; read-out: RORα inverse agonistic activity (IC50); cited from earlier work.

Experiment [5] has as its target T5, LXRα (Homo sapiens, UniProt Q13133).
T5 construct: CMX-GAL4N-hLXRα-LBD; expressed in transfected cells; host or cells: HEK293
T5 sequence (Q13133 209-447 limits assumed): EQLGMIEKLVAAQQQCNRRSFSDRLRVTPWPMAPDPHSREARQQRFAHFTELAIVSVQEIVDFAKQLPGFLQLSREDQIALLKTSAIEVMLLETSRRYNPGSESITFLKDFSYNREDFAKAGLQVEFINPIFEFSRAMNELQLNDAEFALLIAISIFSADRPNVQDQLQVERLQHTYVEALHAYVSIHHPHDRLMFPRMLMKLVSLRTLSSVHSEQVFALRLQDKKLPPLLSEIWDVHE
The experiment is described as follows: LXRα reporter gene assay in HEK293. Format: cell-based. To be noted: read-out: LXRα antagonistic activity (IC50).

Experiment [6] deals with T6, LXRβ (Homo sapiens, UniProt P55055).
T6 construct: CMX-GAL4N-hLXRβ-LBD; expressed in transfected cells; host or cells: HEK293
T6 sequence (P55055 222-460 limits assumed): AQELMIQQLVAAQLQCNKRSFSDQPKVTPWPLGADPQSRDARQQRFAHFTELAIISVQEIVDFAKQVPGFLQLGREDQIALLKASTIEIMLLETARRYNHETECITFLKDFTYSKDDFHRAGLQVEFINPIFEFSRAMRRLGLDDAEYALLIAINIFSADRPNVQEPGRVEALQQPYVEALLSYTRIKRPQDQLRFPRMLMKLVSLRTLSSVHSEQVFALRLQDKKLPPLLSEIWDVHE
The experiment is described as follows: LXRβ reporter gene assay in HEK293. To be noted: read-out: LXRβ antagonistic activity (IC50). Format: cell-based.

Experiment [7] deals with T7, GR (Homo sapiens, UniProt P04150).
T7 construct: expressed in transfected cells; host or cells: HEK293
T7 sequence (P04150 1-777): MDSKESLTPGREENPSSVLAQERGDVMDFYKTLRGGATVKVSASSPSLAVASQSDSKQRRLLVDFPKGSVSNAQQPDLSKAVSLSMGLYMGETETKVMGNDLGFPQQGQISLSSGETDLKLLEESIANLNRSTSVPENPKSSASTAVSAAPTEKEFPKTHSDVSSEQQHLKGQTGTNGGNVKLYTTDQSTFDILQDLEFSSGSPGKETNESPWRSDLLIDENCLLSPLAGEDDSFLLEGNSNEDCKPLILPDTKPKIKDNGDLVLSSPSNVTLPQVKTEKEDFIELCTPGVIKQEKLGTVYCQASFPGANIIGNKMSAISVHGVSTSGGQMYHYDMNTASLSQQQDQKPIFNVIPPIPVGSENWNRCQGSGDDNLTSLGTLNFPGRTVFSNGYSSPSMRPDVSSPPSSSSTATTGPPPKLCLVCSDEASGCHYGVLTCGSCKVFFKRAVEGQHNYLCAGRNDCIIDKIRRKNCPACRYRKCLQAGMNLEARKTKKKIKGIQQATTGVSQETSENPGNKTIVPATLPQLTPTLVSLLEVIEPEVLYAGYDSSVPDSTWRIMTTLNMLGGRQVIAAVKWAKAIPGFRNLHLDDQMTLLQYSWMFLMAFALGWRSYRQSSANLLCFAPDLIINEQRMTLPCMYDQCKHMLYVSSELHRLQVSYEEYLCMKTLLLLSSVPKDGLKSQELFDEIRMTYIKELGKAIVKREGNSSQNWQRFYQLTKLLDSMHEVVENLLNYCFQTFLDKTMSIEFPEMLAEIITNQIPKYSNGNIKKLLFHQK
Briefly: GR reporter gene assay in HEK293. Format: cell-based. The following applies: reporter gene assay, HEK293; agonist dexamethasone 1 nM; read-out: GR antagonistic activity (IC50).

Experiment [8] concerns the target T8, PR (Homo sapiens, UniProt P06401).
T8 sequence (P06401 1-933): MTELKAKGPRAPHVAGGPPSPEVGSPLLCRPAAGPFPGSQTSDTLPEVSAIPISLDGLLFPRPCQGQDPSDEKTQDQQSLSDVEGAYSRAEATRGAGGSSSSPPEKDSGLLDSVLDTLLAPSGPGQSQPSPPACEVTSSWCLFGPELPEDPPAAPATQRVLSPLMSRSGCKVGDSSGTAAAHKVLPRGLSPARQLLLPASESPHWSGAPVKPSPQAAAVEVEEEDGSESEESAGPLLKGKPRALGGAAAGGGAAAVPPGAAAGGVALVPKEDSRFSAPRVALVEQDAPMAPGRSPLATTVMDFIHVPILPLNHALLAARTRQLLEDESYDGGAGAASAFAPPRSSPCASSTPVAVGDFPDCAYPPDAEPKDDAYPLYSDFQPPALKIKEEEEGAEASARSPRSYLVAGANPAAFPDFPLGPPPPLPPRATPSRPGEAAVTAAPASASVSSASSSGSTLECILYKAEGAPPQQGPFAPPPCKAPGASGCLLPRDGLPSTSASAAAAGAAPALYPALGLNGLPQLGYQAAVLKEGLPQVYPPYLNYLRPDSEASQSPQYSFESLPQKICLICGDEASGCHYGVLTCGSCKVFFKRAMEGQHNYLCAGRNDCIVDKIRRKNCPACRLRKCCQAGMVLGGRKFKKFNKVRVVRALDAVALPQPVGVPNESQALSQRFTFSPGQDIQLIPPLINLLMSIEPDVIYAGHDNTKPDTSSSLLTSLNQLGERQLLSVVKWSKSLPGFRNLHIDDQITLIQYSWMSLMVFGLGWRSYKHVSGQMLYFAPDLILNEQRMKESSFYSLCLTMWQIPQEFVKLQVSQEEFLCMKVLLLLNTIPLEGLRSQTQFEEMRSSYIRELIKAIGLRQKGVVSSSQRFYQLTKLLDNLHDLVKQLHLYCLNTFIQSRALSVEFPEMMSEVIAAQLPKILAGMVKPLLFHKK
To be noted: alkaline phosphatase, T47D cells, progesterone 1 nM; read-out: PR antagonistic activity (IC50); cited from earlier work.

By IC50 is commonly meant the concentration that inhibits the measured activity by half. Regarding `Cc1cc(C(O)(C(F)(F)F)C(F)(F)F)cc2c3ccc(F)cc3c(=O)n(C)c12` [Compound 3], the half-maximal inhibitory concentration (IC50) in experiment [1] is over 20 µM; in experiment [2] it was 0.3 µM; in experiment [3], over 20 µM; in experiment [4], over 20 µM.
Turning to `CCCCn1c(=O)c2ccccc2c2cc(C)ccc21` [Compound 8], the IC50 in experiment [5] is 17 µM; in experiment [1], 17 µM; in experiment [6], 16 µM; in experiment [2], 11 µM; in experiment [7], over 20 µM; in experiment [4] it was 18 µM.
Take `Cc1cc(C(O)(C(F)(F)F)C(F)(F)F)cc2c1[nH]c(=O)c1ccccc12` [Compound 40]: the concentration for half-maximal inhibition (IC50) in experiment [1], in experiment [3] and in experiment [4] was over 20 µM each time.
Regarding `CCCCn1c(=O)c2ccc(O)cc2c2cc(C(O)(C(F)(F)F)C(F)(F)F)ccc21` [Compound 38], the half-maximal inhibitory concentration (IC50) in experiment [5] was 7 µM; in experiment [2], over 3 µM; in experiment [8] it was 5.1 µM; in experiment [7], over 20 µM.
As for `CCCn1c(=O)c2ccccc2c2cc(C(O)(C(F)(F)F)C(F)(F)F)ccc21` [Compound 15], the 50% inhibitory concentration (IC50) was 12 µM in experiment [5]; 6.9 µM in experiment [6]; 5.6 µM in experiment [2]; 17 µM in experiment [7]; 11 µM in experiment [4].
In the case of `CCCCn1c(=O)c2ccccc2c2cc(CC)ccc21` [Compound 9], the IC50 in experiment [5] was 17 µM; in experiment [6], 16 µM; in experiment [2] it was 19 µM; in experiment [7] it was 19 µM.
Take `CCCCCCn1c(=O)c2ccccc2c2cc(C(O)(C(F)(F)F)C(F)(F)F)ccc21` [Compound 16]: the half-inhibitory concentration (IC50) was 16 µM in experiment [5], 10 µM in experiment [6], 4 µM in experiment [2] and over 20 µM in experiment [7].
For the compound `Cc1cc(C(O)(C(F)(F)F)C(F)(F)F)cc2c1[nH]c(=O)c1cc(F)ccc12` [Compound 44], the 50% inhibitory concentration (IC50) in experiment [1] was over 20 µM; in experiment [6], over 20 µM; in experiment [2], 1.7 µM; in experiment [3] it was over 20 µM; in experiment [4] it was over 20 µM.
